Results taken from article PMC6277767, “Broad and Region-Specific Impacts of the Synthetic Cannabinoid CP 55,940 in Adolescent and Adult Female Mouse Brains” (Frontiers in Molecular Neuroscience, 2018).

System: CD1 female mouse brain lipidome
Assay: Brain-region lipid levels (HPLC/MS/MS lipidomics) 2 h after single i.p. 3 mg/kg CP 55,940 vs vehicle
Type: in vivo
Description: The Bloomington Institutional Animal Care and Use Committee of Indiana University reviewed and approved the animal procedures. Female mice from the CD1 strain were utilized to match our study examining THC’s effects on the brain lipidome ([Leishman et al., 2018]). Mice were given a single i.p. injection of either 3 mg/kg CP or 1:1:18 cremophor:ethanol:saline vehicle (please refer to the section “3 mg/kg CP Is Relevant for Synthetic Cannabinoid Abuse and Has Stronger Effects on the Female Mouse Brain Lipidome During Adolescence” for a justification of dose and use of female mice). Three different age groups were given injections: PND 35 and PND 50 adolescents, and adult mice (PND 113). At least eight mice in each age group received CP and at least eight received vehicle. Matching the THC study time course ([Leishman et al., 2018]), mice were sacrificed via rapid decapitation 2 h after injection. Brains were immediately removed and flash-frozen in liquid nitrogen, and then stored at -80°C until dissections were performed. Brains were dissected on an ice-cold dissection plate into the following regions: STR, HIPP, CER, THAL, CTX, HYP, MID, and STEM. These abbreviations for these brain areas will be used exclusively when discussing the results generated by these specific dissections. Each dissected area was immediately placed in liquid nitrogen and then stored at -80°C until used for lipid extraction.
Tissue extracts were performed as previously described ([Bradshaw et al., 2006]; [Stuart et al., 2013]; [Raboune et al., 2014]; [Leishman et al., 2016a],[b], [2017], [2018]). First, samples were shock frozen in liquid nitrogen, weighed, and transferred to a centrifuge tube. The mass of the largest sample was multiplied by 50 to determine how many milliliters of HPLC-grade methanol (Fisher, Fair Lawn, NJ, United States) to add. Then, samples were spiked with 500 pmol deuterium-labeled NAGly (d8NAGly; Cayman Chemical, Ann Arbor, MI, United States). Samples were placed on ice in darkness for 2 h then individually homogenized and centrifuged at 19,000 × g for 20 min at 20°C. Supernatants were diluted with HPLC water (purified in house) to make a solution of 75% water, 25% supernatant. Lipids were partially purified on C18 solid phase extraction columns (Agilent, Palo Alto, CA, United States). A series of four elutions with 1.5 mL of 60%, 75%, 85%, and 100% methanol were collected ([Stuart et al., 2013]; [Leishman et al., 2016a],[b], [2018]).
As previously described ([Bradshaw et al., 2006]; [Tan et al., 2006]; [Smoum et al., 2010]; [Stuart et al., 2013]; [Tortoriello et al., 2013]; [Raboune et al., 2014]; [Leishman et al., 2016a],[b], [2017], [2018]), samples were analyzed using an Applied Biosystems API 3000 triple quadrupole mass spectrometer with electrospray ionization (Foster City, CA, United States). Using an Agilent XDB-C18 reversed phase analytical column and optimized mobile phase gradients, 20 μL from each elution were chromatographed. Two Shimadzu 10ADvp pumps (Columbia, MD, United States) provided the pressure for gradient elution. Mobile phase A: 20% methanol, 80% water (v/v) and 1 mM ammonium acetate (Sigma, St. Louis, MO, United States). Mobile phase B: 100% methanol, 1 mM ammonium acetate. Every method run began with 0% mobile phase B, reached 100% mobile phase B flowing at 0.2 mL/min, and gradually returned to 0% mobile phase B.
This screening library will be referred to as the lipidome when discussing data from this study. HPLC/MS/MS data were analyzed using Analyst software (Applied Biosystems) ([Bradshaw et al., 2006]; [Tan et al., 2006]; [Stuart et al., 2013]; [Tortoriello et al., 2013]; [Raboune et al., 2014]; [Leishman et al., 2016a],[b], [2017], [2018]). Chromatograms (Supplementary Figure 3) were generated by determining the retention time of analytes from the analytical column with a [M-1] or [M+1] parent peak and a fragmentation peak corresponding to the programmed values. […]

[1] = adult brainstem, 3mg/kg CP 55,940
[2] = adult cortex, 3 mg/kg CP 55,940, p .004
[3] = adult cortex, 3 mg/kg CP 55,940, p .008
[4] = adult cortex, 3 mg/kg CP 55,940, p .028
[5] = adult cortex, 3 mg/kg CP 55,940, p .055
[6] = adult cortex, 3 mg/kg CP 55,940, p .057
[7] = adult cortex, 3 mg/kg CP 55,940, p .077
[8] = adult cortex, 3 mg/kg CP 55,940, p .086
[9] = adult cortex, 3 mg/kg CP 55,940, p .090
[10] = adult female mice, brainstem, 3mg/kg CP 55,940

CCCCCCC(C)(C)c1ccc([C@@H]2C[C@H](O)CC[C@H]2CCCO)c(O)c1 [CP 55,940]
N-docosahexaenoyl alanine level, Mean [1]: 3.28E-13
N-docosahexaenoyl ethanolamine level, Mean [1]: 2.85E-11
N-docosahexaenoyl glycine level, Mean [1]: 5.52E-13
N-docosahexaenoyl phenylalanine level, Mean [1]: 3.64E-14
N-linoleoyl GABA level, Mean [1]: 6.22E-12
N-linoleoyl alanine level, Mean [1]: 2E-13
N-linoleoyl ethanolamine level, Mean [1]: 8.37E-12
N-linoleoyl glycine level, Mean [1]: 1.41E-13
N-linoleoyl methionine level, Mean [1]: BDL
N-oleoyl GABA level, Mean [1]: 1.65E-11
N-oleoyl alanine level, Mean [1]: 3.26E-12
N-oleoyl dopamine level, Mean [1]: BDL
N-oleoyl ethanolamine level, Mean [1]: 2.44E-10
N-oleoyl ethanolamine, Direction (relative to Veh) [1]: ↓
N-oleoyl ethanolamine, Magnitude (x Veh level) [1]: 0.76 x Veh level
N-oleoyl glycine level, Mean [1]: 2.1E-12
N-oleoyl leucine level, Mean [1]: 2E-12
N-oleoyl methionine level, Mean [1]: 4.11E-13
N-oleoyl phenylalanine level, Mean [1]: 4.28E-13
N-palmitoyl GABA level, Mean [1]: 1.95E-11
N-palmitoyl alanine level, Mean [1]: 3.16E-12
N-palmitoyl ethanolamine level, Mean [1]: 8.74E-11
N-palmitoyl glycine level, Mean [1]: 2.79E-12
N-palmitoyl leucine level, Mean [1]: 3.05E-12
N-palmitoyl leucine, Direction (relative to Veh) [1]: ↑
N-palmitoyl leucine, Magnitude (x Veh level) [1]: 1.30 x Veh level
N-palmitoyl methionine level, Mean [1]: 5.07E-12
N-palmitoyl phenylalanine level, Mean [1]: 2.38E-13
N-palmitoyl valine Direction (relative to Veh) [1]: ↑
N-palmitoyl valine Magnitude (x Veh level) [1]: 1.43 x Veh level
N-stearoyl GABA level, Mean [1]: 1.37E-11
N-stearoyl alanine level, Mean [1]: 5.4E-12
N-stearoyl ethanolamine level, Mean [1]: 3.01E-11
N-stearoyl glycine level, Mean [1]: 4.95E-12
N-stearoyl leucine level, Mean [1]: 1.96E-12
N-stearoyl methionine level, Mean [1]: 4.69E-13
N-stearoyl phenylalanine level, Mean [1]: 1.53E-13
Oleic acid, Direction (relative to Veh) [1]: ↓
Oleic acid, Magnitude (x Veh level) [1]: 0.80 x Veh level
PGE2 Direction (relative to Veh) [1]: ↓
PGE2 Magnitude (x Veh level) [1]: 0.87 x Veh level
2-arachidonoyl glycerol level, Mean (adult cortex, 3mg/kg CP 55,940): 3.28E-09
2-linoleoyl glycerol level, Mean (adult cortex, 3mg/kg CP 55,940): 1.48E-10
2-oleoyl glycerol level, Mean (adult cortex, 3mg/kg CP 55,940): 1.56E-09
2-palmitoyl glycerol level, Mean (adult cortex, 3mg/kg CP 55,940): 8.13E-11
6-ketoPGF1α level, Mean (adult cortex, 3mg/kg CP 55,940): 1.5E-11
11-OH-THC level, Mean (adult cortex, 3mg/kg CP 55,940): BDL
11-nor-9-carboxyTHC level, Mean (adult cortex, 3mg/kg CP 55,940): BDL
Arachidonic acid level, Mean (adult cortex, 3mg/kg CP 55,940): 9.03E-10
Cannabidiol level, Mean (adult cortex, 3mg/kg CP 55,940): BDL
Linoleic acid level, Mean (adult cortex, 3mg/kg CP 55,940): 5.34E-10
N- stearoyl valine level, Mean (adult cortex, 3mg/kg CP 55,940): 2.51E-14
N-arachidonoyl proline level, Mean (adult cortex, 3mg/kg CP 55,940): BDL
N-arachidonoyl taurine level, Mean (adult cortex, 3mg/kg CP 55,940): 8.95E-11
N-arachidonoyl tryptophan level, Mean (adult cortex, 3mg/kg CP 55,940): BDL
N-arachidonoyl tyrosine level, Mean (adult cortex, 3mg/kg CP 55,940): 6.06E-13
N-docosahexaenoyl proline level, Mean (adult cortex, 3mg/kg CP 55,940): BDL
N-docosahexaenoyl tryptophan level, Mean (adult cortex, 3mg/kg CP 55,940): BDL
N-docosahexaenoyl tyrosine level, Mean (adult cortex, 3mg/kg CP 55,940): 3.81E-13
N-linoleoyl proline level, Mean (adult cortex, 3mg/kg CP 55,940): BDL
N-linoleoyl serine level, Mean (adult cortex, 3mg/kg CP 55,940): 1.53E-11
N-linoleoyl tryptophan level, Mean (adult cortex, 3mg/kg CP 55,940): BDL
N-linoleoyl tyrosine level, Mean (adult cortex, 3mg/kg CP 55,940): BDL
N-nervonoyl valine level, Mean (adult cortex, 3mg/kg CP 55,940): BDL
N-oleoyl proline level, Mean (adult cortex, 3mg/kg CP 55,940): BDL
N-oleoyl serine level, Mean (adult cortex, 3mg/kg CP 55,940): 8.25E-11
N-oleoyl tryptophan level, Mean (adult cortex, 3mg/kg CP 55,940): BDL
N-oleoyl tyrosine level, Mean (adult cortex, 3mg/kg CP 55,940): 3.46E-13
N-oleoyl valine level, Mean (adult cortex, 3mg/kg CP 55,940): 1.3E-14
N-palmitoyl proline level, Mean (adult cortex, 3mg/kg CP 55,940): BDL
N-palmitoyl serine level, Mean (adult cortex, 3mg/kg CP 55,940): 6.45E-12
N-palmitoyl tryptophan level, Mean (adult cortex, 3mg/kg CP 55,940): BDL
N-palmitoyl tyrosine level, Mean (adult cortex, 3mg/kg CP 55,940): 7.95E-13
N-palmitoyl valine level, Mean (adult cortex, 3mg/kg CP 55,940): 1.13E-13
N-stearoyl proline level, Mean (adult cortex, 3mg/kg CP 55,940): BDL
N-stearoyl serine level, Mean (adult cortex, 3mg/kg CP 55,940): 9.84E-12
N-stearoyl tryptophan level, Mean (adult cortex, 3mg/kg CP 55,940): BDL
N-stearoyl tyrosine level, Mean (adult cortex, 3mg/kg CP 55,940): 1.21E-13
Oleic acid level, Mean (adult cortex, 3mg/kg CP 55,940): 4.6E-10
PGE2 level, Mean (adult cortex, 3mg/kg CP 55,940): 3.08E-10
PhosphoLEA level, Mean (adult cortex, 3mg/kg CP 55,940): 1.8E-12
THC level, Mean (adult cortex, 3mg/kg CP 55,940): BDL
6-ketoPGF1α Direction (relative to Veh) [2]: ↓
6-ketoPGF1α Magnitude (x Veh level) [2]: 0.68
N-palmitoyl valine Direction (relative to Veh) [3]: ↑
N-palmitoyl valine Magnitude (x Veh level) [3]: 1.49
PGF2α Direction (relative to Veh) [4]: ↓
PGF2α Magnitude (x Veh level) [4]: 0.89
N-linoleoyl GABA Direction (relative to Veh) [5]: ↓
N-linoleoyl GABA Magnitude (x Veh level) [5]: 0.86
N-stearoyl phenylalanine, Direction (relative to Veh) [6]: ↓
N-stearoyl phenylalanine, Magnitude (x Veh level) [6]: 0.66
Arachidonic acid, Direction (relative to Veh) [7]: ↓
Arachidonic acid, Magnitude (x Veh level) [7]: 0.86
N-arachidonoyl taurine Direction (relative to Veh) [8]: ↓
N-arachidonoyl taurine Magnitude (x Veh level) [8]: 0.93
2-linoleoyl glycerol Direction (relative to Veh) [9]: ↓
2-linoleoyl glycerol Magnitude (x Veh level) [9]: 0.76
2-arachidonoyl glycerol level, Mean [10]: 4.32E-09
2-linoleoyl glycerol level, Mean [10]: 2.54E-10
2-oleoyl glycerol level, Mean [10]: 3.17E-09
2-palmitoyl glycerol level, Mean [10]: 3.83E-11
